In patent US12258327B2, “5-membered heteroaryl-containing aminopyridine compounds as EGFR inhibitors” (YUHAN CORPORATION, priority 2021, dated 2025):
Like-named read-outs stand apart in the source and are kept apart here.

Key:
EGFR del19/C797S = EGFR del19/C797S (Homo sapiens, UniProt P00533, C797S/DEL746-750); assay: Biochemical EGFR kinase assay (Lance Ultra TR-FRET), double mutant del19/C797S
Outline: (§1)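 In this biochemical assay, phosphorylation after a one-hour room-temperature reaction was detected with europium-labelled anti-phosphopeptide antibody at 2 nM final concentration.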

EGFR L858R/T790M/C797S = EGFR L858R/T790M/C797S (Homo sapiens, UniProt P00533, C797S/L858R/T790M); assay: Biochemical EGFR kinase assay (Lance Ultra TR-FRET), triple mutant L858R/T790M/C797S
EGFR L858R/T790M/C797S, sequence (P00533 25-1210 T790M/C797S/L858R): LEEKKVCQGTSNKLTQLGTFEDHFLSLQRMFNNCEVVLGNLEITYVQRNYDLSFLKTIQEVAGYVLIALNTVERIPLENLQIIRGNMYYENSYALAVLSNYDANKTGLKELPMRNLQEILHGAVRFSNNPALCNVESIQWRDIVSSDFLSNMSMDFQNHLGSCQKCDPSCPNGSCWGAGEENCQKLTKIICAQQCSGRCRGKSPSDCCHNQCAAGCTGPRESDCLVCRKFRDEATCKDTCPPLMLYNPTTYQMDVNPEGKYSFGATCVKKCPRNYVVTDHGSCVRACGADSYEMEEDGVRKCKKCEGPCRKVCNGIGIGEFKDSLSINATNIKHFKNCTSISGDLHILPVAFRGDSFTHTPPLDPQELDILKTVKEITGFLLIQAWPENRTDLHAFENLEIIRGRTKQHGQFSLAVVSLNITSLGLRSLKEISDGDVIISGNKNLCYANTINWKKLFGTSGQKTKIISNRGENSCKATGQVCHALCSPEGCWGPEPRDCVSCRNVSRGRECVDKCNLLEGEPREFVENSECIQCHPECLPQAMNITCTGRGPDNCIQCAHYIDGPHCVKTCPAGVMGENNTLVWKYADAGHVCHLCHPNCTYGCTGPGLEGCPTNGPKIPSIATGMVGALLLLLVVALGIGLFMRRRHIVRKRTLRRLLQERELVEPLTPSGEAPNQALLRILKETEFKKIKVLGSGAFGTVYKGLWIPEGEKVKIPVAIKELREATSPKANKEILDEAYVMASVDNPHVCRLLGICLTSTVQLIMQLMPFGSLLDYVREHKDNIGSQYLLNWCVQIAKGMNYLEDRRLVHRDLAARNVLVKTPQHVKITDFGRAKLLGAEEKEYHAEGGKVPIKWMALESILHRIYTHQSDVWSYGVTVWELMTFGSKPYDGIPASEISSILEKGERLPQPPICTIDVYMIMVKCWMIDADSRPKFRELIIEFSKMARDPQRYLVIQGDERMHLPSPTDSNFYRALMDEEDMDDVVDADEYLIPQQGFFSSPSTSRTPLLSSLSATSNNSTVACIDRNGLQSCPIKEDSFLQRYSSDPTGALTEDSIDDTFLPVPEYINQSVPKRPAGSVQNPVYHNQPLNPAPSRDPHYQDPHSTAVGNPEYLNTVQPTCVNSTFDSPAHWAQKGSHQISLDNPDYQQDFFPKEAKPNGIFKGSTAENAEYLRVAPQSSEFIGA
Outline: as §1

EGFR L858R/C797S = EGFR L858R/C797S (Homo sapiens, UniProt P00533, C797S/L858R); assay: Biochemical EGFR kinase assay (Lance Ultra TR-FRET), double mutant L858R/C797S
Outline: as §1

EGFR del19/T790M/C797S = EGFR del19/T790M/C797S (Homo sapiens, UniProt P00533, C797S/DEL746-750/T790M); assay: Biochemical EGFR kinase assay (Lance Ultra TR-FRET), triple mutant del19/T790M/C797S
EGFR del19/T790M/C797S, sequence (P00533 with tags, fused parts or gaps DEL746-750/T790M/C797S): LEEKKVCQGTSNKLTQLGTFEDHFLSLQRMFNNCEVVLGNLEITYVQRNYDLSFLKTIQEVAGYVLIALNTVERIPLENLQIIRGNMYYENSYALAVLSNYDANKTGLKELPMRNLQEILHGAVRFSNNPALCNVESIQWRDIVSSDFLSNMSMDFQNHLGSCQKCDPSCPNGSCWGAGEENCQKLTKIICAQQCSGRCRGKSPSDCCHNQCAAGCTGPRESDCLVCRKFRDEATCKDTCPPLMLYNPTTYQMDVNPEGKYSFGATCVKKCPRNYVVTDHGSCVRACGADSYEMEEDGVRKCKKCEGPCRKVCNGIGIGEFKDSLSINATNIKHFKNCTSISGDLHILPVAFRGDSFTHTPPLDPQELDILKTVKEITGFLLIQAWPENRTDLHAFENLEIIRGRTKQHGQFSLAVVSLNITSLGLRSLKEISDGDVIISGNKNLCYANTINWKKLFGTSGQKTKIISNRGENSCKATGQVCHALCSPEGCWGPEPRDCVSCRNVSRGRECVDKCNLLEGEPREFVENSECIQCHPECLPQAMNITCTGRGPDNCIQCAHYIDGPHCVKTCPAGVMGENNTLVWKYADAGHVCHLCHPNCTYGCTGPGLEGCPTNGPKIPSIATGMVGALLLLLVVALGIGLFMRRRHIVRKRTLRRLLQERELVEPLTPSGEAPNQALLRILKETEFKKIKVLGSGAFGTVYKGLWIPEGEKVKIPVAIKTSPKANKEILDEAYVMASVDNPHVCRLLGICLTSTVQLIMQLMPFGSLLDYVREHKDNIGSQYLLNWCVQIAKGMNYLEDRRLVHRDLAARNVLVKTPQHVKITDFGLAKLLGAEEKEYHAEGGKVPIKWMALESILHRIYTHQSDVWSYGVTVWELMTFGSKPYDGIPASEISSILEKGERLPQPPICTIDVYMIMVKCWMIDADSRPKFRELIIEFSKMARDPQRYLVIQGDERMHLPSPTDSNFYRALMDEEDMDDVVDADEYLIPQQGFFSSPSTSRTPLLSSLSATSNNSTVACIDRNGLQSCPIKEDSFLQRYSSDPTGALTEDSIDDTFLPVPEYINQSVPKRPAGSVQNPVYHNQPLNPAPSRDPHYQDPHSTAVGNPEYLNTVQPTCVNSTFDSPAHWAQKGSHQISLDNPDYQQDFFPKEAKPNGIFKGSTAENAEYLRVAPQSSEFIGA
Outline: as §1

EGFR wildtype (WT) = EGFR wildtype (WT) (Homo sapiens, UniProt P00533); assay: Biochemical EGFR kinase assay (Lance Ultra TR-FRET), wildtype
EGFR wildtype (WT), sequence (P00533 25-1210): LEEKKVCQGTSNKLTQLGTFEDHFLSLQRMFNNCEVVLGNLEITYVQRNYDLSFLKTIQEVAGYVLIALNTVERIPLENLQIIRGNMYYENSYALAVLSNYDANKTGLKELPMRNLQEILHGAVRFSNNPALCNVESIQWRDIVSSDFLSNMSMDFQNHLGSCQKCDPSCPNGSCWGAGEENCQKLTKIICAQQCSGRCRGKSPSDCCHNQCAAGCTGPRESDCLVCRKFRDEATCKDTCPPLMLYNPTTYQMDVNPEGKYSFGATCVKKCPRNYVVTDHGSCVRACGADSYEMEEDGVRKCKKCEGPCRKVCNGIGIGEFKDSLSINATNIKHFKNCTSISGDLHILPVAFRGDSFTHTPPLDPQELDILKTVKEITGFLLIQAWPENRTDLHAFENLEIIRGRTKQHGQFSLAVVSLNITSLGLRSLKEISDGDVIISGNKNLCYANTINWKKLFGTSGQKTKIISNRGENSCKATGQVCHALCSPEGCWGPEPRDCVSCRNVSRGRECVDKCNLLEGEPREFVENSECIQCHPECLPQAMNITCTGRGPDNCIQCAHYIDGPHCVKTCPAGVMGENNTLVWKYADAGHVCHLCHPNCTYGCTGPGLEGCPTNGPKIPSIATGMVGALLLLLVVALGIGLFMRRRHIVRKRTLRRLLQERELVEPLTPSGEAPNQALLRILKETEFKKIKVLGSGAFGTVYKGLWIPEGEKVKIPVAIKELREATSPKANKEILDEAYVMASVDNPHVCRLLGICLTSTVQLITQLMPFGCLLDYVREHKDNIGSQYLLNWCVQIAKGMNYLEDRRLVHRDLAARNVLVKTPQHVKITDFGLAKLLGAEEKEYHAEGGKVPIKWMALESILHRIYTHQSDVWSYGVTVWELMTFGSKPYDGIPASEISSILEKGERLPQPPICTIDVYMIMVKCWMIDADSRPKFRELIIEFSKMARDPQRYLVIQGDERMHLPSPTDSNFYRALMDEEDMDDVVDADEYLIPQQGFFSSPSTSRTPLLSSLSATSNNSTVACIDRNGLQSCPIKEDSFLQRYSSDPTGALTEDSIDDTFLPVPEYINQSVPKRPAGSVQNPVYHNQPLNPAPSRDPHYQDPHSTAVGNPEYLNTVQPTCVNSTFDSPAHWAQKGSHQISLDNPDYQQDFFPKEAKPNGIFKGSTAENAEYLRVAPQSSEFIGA
Outline: as §1

[1] = IC50 del19/C797S (nM) 100 μM ATP, 100 μM ATP
[2] = Km ATP, read-out: IC50 del19/C797S (nM) Km ATP
[3] = IC50 L858R/T790M/C797S (nM) 100 μM ATP, 100 μM ATP
[4] = Km ATP, read-out: IC50 L858R/T790M/C797S (nM) Km ATP
[5] = IC50 L858R/C797S (nM) 100 μM ATP, 100 μM ATP
[6] = Km ATP, read-out: IC50 L858R/C797S (nM) Km ATP
[7] = IC50 del19/T790M/C797S (nM) 100 μM ATP, 100 μM ATP
[8] = Km ATP, read-out: IC50 del19/T790M/C797S (nM) Km ATP
[9] = IC50 WT (nM) 100 μM ATP, 100 μM ATP
[10] = Km ATP, read-out: IC50 WT (nM) Km ATP
[11] = read-out: IC50 del19/C797S (nM) 100 μM ATP, 100 μM ATP
[12] = read-out: IC50 L858R/T790M/C797S (nM) 100 μM ATP, 100 μM ATP
[13] = read-out: IC50 L858R/C797S (nM) 100 μM ATP, 100 μM ATP
[14] = read-out: IC50 del19/T790M/C797S (nM) 100 μM ATP, 100 μM ATP
[15] = read-out: IC50 WT (nM) 100 μM ATP, 100 μM ATP

EGFR del19/C797S, sequence (P00533 with tags, fused parts or gaps DEL746-750/C797S): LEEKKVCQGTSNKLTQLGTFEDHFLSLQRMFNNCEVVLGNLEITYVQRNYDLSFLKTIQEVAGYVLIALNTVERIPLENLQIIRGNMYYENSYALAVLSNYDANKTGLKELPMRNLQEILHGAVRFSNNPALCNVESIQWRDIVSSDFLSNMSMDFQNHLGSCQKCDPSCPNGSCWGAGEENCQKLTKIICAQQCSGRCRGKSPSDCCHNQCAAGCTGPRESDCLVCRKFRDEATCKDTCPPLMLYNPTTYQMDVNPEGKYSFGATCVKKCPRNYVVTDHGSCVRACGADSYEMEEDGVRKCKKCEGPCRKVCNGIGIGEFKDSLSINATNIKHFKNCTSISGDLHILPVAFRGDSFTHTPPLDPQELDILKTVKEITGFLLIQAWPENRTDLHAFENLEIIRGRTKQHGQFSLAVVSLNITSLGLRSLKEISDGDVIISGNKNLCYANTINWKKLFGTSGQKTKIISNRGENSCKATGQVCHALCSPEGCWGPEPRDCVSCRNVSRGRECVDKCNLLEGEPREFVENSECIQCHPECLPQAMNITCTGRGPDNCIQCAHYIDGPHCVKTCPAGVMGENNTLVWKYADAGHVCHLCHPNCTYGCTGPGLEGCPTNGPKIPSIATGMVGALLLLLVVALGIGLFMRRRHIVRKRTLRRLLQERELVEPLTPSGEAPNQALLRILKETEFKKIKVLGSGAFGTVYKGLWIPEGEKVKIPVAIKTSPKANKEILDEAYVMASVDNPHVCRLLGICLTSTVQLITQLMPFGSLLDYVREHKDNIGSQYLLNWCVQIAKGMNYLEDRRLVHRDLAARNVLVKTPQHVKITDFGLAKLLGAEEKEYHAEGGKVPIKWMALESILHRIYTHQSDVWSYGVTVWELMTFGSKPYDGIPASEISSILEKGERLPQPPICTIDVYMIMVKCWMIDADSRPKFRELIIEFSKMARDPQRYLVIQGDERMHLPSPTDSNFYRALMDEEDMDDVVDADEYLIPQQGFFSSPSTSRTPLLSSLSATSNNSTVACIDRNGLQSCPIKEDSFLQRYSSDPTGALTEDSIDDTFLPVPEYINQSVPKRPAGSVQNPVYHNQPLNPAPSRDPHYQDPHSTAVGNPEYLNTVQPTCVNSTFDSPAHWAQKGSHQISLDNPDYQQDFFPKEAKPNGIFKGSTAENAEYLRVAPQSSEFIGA

| IC50 (EGFR del19/C797S; [1]) [nM] | IC50 (EGFR del19/C797S; [2]) [nM] | IC50 (EGFR L858R/T790M/C797S; [3]) [nM] | IC50 (EGFR L858R/T790M/C797S; [4]) [nM] | IC50 (EGFR L858R/C797S; [5]) [nM] | IC50 (EGFR L858R/C797S; [6]) [nM] | IC50 (EGFR del19/T790M/C797S; [7]) [nM] | IC50 (EGFR del19/T790M/C797S; [8]) [nM] | IC50 (EGFR wildtype (WT); [9]) [nM] | IC50 (EGFR wildtype (WT); [10]) [nM] | SMILES | IC50 (EGFR del19/C797S; [11]) [nM] | IC50 (EGFR L858R/T790M/C797S; [12]) [nM] | IC50 (EGFR L858R/C797S; [13]) [nM] | IC50 (EGFR del19/T790M/C797S; [14]) [nM] | IC50 (EGFR wildtype (WT); [15]) [nM] |
| --- | --- | --- | --- | --- | --- | --- | --- | --- | --- | --- | --- | --- | --- | --- | --- |
| 17.6 | 7.2 | 7.9 | 1.2 | 262 | 27.8 | 3.6 | 1.6 | > 10000 | 143 | O=S(=O)(C1CC1)n1cc(-c2nccc(Nc3cc(NC4CC5CC(O)C4C5)c(-c4ccn(C(F)F)n4)cn3)n2)cn1 (stereo not shown) [Example 39, 6-((2-((2-(1-(Cyclopropylsulfonyl)-1H-pyrazol-4-yl)pyrimidin-4-yl)amino)-5-(1-(difluoromethyl)-1H-pyrazol-3-yl)pyridin-4-yl)amino)bicycle[2.2.1]heptan-2-ol] |  |  |  |  |  |
| 7.6 | 2.3 | 2 | 0.3 | 174 | 4.5 | 0.5 | 0.5 | > 10000 | 36.3 | O=S(=O)(C1CC1)n1cc(-c2nccc(Nc3cc(NC4CC(O)C4)c(-c4ccn(C(F)F)n4)cn3)n2)cn1 (stereo not shown) [Example 40, 3-((2-((2-(1-(Cyclopropylsulfonyl)-1H-pyrazol-4-yl)pyrimidin-4-yl)amino)-5-(1-(difluoromethyl)-1H-pyrazol-3-yl)pyridin-4-yl)amino)cyclobutan-1-ol] |  |  |  |  |  |
| 34.8 |  | 6.8 |  | > 10000 |  | 2 |  | > 10000 |  | O=S(=O)(C1CC1)n1cc(-c2nccc(Nc3cc(NCCCn4ccnc4)c(-c4ccn(C(F)F)n4)cn3)n2)cn1 [Example 41, N^4-(3-(1H-Imidazol-1-yl)propyl)-N^2-(2-(1-(cyclopropylsulfonyl)-1H-pyrazol-4-yl)pyrimidin-4-yl)-5-(1-(difluoromethyl)-1H-pyrazol-3-yl)pyridine-2,4-diamine] |  |  |  |  |  |
|  | 0.7 | 0.3 | 0.1 | 14.7 | 0.4 | 0.3 | 0.2 | 5240 | 4.9 | Cn1ccc(-c2cnc(Nc3ccnc(-c4cnn(S(=O)(=O)C5CC5)c4)n3)cc2N[C@H]2CC[C@@H](NCCF)CC2)n1 [Example 43, N^2-(2-(1-(Cyclopropylsulfonyl)-1H-pyrazol-4-yl)pyrimidin-4-yl)-N^4-((1s,4s)-4-((2-fluoroethyl)amino)cyclohexyl)-5-(1-methyl-1H-pyrazol-3-yl)pyridine-2,4-diamine] |  |  |  |  |  |
| 0.4 | 0.6 | 0.2 | 0.2 | 2.8 | 0.7 | 0.2 | 0.6 | 918 | 2.2 | Cn1ccc(-c2cnc(Nc3ccnc(-c4cnn(S(=O)(=O)C5CC5)c4)n3)cc2N[C@H]2CC[C@@H](NCC(F)F)CC2)n1 [Example 45, N^2-(2-(1-(Cyclopropylsulfonyl)-1H-pyrazol-4-yl)pyrimidin-4-yl)-N^4-((1s,4s)-4-((2,2-difluoroethyl)amino)cyclohexyl)-5-(1-methyl-1H-pyrazol-3-yl)pyridine-2,4-diamine] |  |  |  |  |  |
| 0.8 | 0.5 | 0.5 | 0.1 | 6.5 | 0.8 | 0.6 | 0.6 | > 10000 | 4.5 | Cn1ccc(-c2cnc(Nc3ccnc(-c4cnn(S(=O)(=O)C5CC5)c4)n3)cc2NC[C@H]2CC[C@H](O)CC2)n1 [Example 47, (1r,4r)-4-(((2-((2-(1-(Cyclopropylsulfonyl)-1H-pyrazol-4-yl)pyrimidin-4-yl)amino)-5-(1-methyl-1H-pyrazol-3-yl)pyridin-4-yl)amino)methyl)cyclohexan-1-ol] |  |  |  |  |  |

Second part, the compound before the results:

| SMILES | IC50 (EGFR del19/C797S; [1]) [nM] | IC50 (EGFR del19/C797S; [2]) [nM] | IC50 (EGFR L858R/T790M/C797S; [3]) [nM] | IC50 (EGFR L858R/T790M/C797S; [4]) [nM] | IC50 (EGFR L858R/C797S; [5]) [nM] | IC50 (EGFR L858R/C797S; [6]) [nM] | IC50 (EGFR del19/T790M/C797S; [7]) [nM] | IC50 (EGFR del19/T790M/C797S; [8]) [nM] | IC50 (EGFR wildtype (WT); [9]) [nM] | IC50 (EGFR wildtype (WT); [10]) [nM] | IC50 (EGFR del19/C797S; [11]) [nM] | IC50 (EGFR L858R/T790M/C797S; [12]) [nM] | IC50 (EGFR L858R/C797S; [13]) [nM] | IC50 (EGFR del19/T790M/C797S; [14]) [nM] | IC50 (EGFR wildtype (WT); [15]) [nM] |
| --- | --- | --- | --- | --- | --- | --- | --- | --- | --- | --- | --- | --- | --- | --- | --- |
| O=S(=O)(C1CC1)n1cc(-c2nccc(Nc3cc(NC[C@H]4C[C@@H](O)C4)c(-c4ccn(C(F)F)n4)cn3)n2)cn1 [Example 35, (1s,3s)-3-(((2-((2-(1-(Cyclopropylsulfonyl)-1H-pyrazol-4-yl)pyrimidin-4-yl)amino)-5-(1-(difluoromethyl)-1H-pyrazol-3-yl)pyridin-4-yl)amino)methyl)cyclobutan-1-ol] | 5.4 | 5.2 | 0.9 | 0.2 | 57.6 | 6.5 | 0.3 | 0.4 | > 10000 | 32.9 |  |  |  |  |  |
| C[C@]1(O)CC[C@H](CNc2cc(Nc3ccnc(-c4cnn(S(=O)(=O)C5CC5)c4)n3)ncc2-c2ccn(C(F)F)n2)CC1 [Example 36, (1r,4r)-4-(((2-((2-(1-(Cyclopropylsulfonyl)-1H-pyrazol-4-yl)pyrimidin-4-yl)amino)-5-(1-(difluoromethyl)-1H-pyrazol-3-yl)pyridin-4-yl)amino)methyl)-1-methylcyclohexan-1-ol] | 6.8 | 5.4 | 1.2 | 0.3 | 33.8 | 3.9 | 1 | 0.8 | > 10000 | 25.1 |  |  |  |  |  |
| CN1CC(Nc2cc(Nc3ccnc(-c4cnn(S(=O)(=O)C5CC5)c4)n3)ncc2-c2ccn(C(F)F)n2)CCC1=O (stereo not shown) [Example 37, 5-((2-((2-(1-(Cyclopropylsulfonyl)-1H-pyrazol-4-yl)pyrimidin-4-yl)amino)-5-(1-(difluoromethyl)-1H-pyrazol-3-yl)pyridin-4-yl)amino)-1-methylpiperidin-2-one] | 16.6 | 12.1 | 6.6 | 0.7 | 264 | 5 | 1.4 | 1.2 | > 10000 | 108 |  |  |  |  |  |
| O=C1NCCCC1Nc1cc(Nc2ccnc(-c3cnn(S(=O)(=O)C4CC4)c3)n2)ncc1-c1ccn(C(F)F)n1 (stereo not shown) [Example 38, 3-((2-((2-(1-(Cyclopropylsulfonyl)-1H-pyrazol-4-yl)pyrimidin-4-yl)amino)-5-(1-(difluoromethyl)-1H-pyrazol-3-yl)pyridin-4-yl)amino)piperidin-2-one] | 24.8 | 23.7 | 2.5 | 0.3 | 182 | 9.1 | 0.5 | 0.5 | > 10000 | 60.7 |  |  |  |  |  |
| Cn1ccc(-c2cnc(Nc3ccnc(-c4cnn(S(=O)(=O)C5CC5)c4)n3)cc2N[C@H]2CC[C@]3(CCC(=O)N3)CC2)n1 [Example 44, (5s,8s)-8-((2-((2-(1-(Cyclopropylsulfonyl)-1H-pyrazol-4-yl)pyrimidin-4-yl)amino)-5-(1-methyl-1H-pyrazol-3-yl)pyridin-4-yl)amino)-1-azaspiro[4.5]decan-2-one] | 0.2 | 0.2 | 0.2 | 0.1 | 0.8 | 0.2 | 0.2 | 0.2 | > 10000 | 1 |  |  |  |  |  |
| Cn1ccc(-c2cnc(Nc3ccnc(-c4cnn(S(=O)(=O)C5CC5)c4)n3)cc2NC[C@H]2CC[C@](C)(O)CC2)n1 [Example 48, (1r,4r)-4-(((2-((2-(1-(Cyclopropylsulfonyl)-1H-pyrazol-4-yl)pyrimidin-4-yl)amino)-5-(1-methyl-1H-pyrazol-3-yl)pyridin-4-yl)amino)methyl)-1-methylcyclohexan-1-ol] | 0.9 | 0.9 | 0.5 | 0.2 | 6.1 | 1.9 | 0.4 | 0.4 | 9600 | 5.8 |  |  |  |  |  |
| CC(C)(O)[C@H]1CC[C@@H](Nc2cc(Nc3ccnc(-c4cnn(S(=O)(=O)C5CC5)c4)n3)ncc2-c2csc(C(F)(F)F)n2)CC1 [Example 49, 2-((1s,4s)-4-((2-((2-(1-(Cyclopropylsulfonyl)-1H-pyrazol-4-yl)pyrimidin-4-yl)amino)-5-(2-(trifluoromethyl)thiazol-4-yl)pyridin-4-yl)amino)cyclohexyl)propan-2-ol] |  |  |  |  |  |  |  |  |  |  | 200 | 28.7 | 278 | 18.8 | > 10000 |
| O=S(=O)(C1CC1)n1cc(-c2nccc(Nc3cc(N[C@H]4CC[C@@H](NCCF)CC4)c(-c4csc(C(F)(F)F)n4)cn3)n2)cn1 [Example 50, N^2-(2-(1-(Cyclopropylsulfonyl)-1H-pyrazol-4-yl)pyrimidin-4-yl)-N^4-((1s,4s)-4-((2-fluoroethyl)amino)cyclohexyl)-5-(2-(trifluoromethyl)thiazol-4-yl)pyridine-2,4-diamine] |  |  |  |  |  |  |  |  |  |  | 25.6 | 1.6 | 42.2 | 1.1 | > 10000 |
